Values quoted from earlier work in patent US20080181937A1, “DOSAGE REGIMEN AND MEDICAMENT FOR GUARDING MEMORY AND BRAIN HEALTH AND FOR PREVENTING OR REDUCING RISK OF ONSET OF DEMENTIA BY ADMINISTRATION OF SPECIFIC VITAMINS AND SUPPLEMENTS (MEMOGUARD)” (priority 2007, published 2008).

Legend:
amyloid = details: in vivo
[1] = tested on: normal healthy subjects and the elderly; details: fish 2-3 times a week or supplements
[2] = tested on: patients with marked memory loss at risk for developing Alzheimer's disease
[3] = tested on: animal model of rheumatoid arthritis

In the case of `CC/C=C\C/C=C\C/C=C\C/C=C\C/C=C\C/C=C\CCC(=O)O` [DHA], the “amount of amyloid in the brain” value (amyloid) is listed as “can reduce the amount of amyloid in the brain”, the memory and attention ([1]; normal healthy subjects) is listed as “increases memory and attention” and the “risk of Alzheimer's” value ([1]; the elderly) is listed as “significantly lowers the risk of Alzheimer's”.

For vitamin E, the “transfer to a nursing home” value (elderly patients; patients with cognitive impairment or dementia) is listed as “can even delay transfer to a nursing home”.

For `COc1ccc2c3c1O[C@H]1C[C@@H](O)C=C[C@@]31CCN(C)C2` [Razadyne], the “prevention of the onset of Alzheimer's disease” value [2] is given as “Neither of these drugs were shown to significantly prevent the onset”.

For `COc1cc2c(cc1OC)C(=O)C(CC1CCN(Cc3ccccc3)CC1)C2` (centres unmarked) [Aricept], the “prevention of the onset of Alzheimer's disease” value [2] is listed as “Neither of these drugs were shown to significantly prevent the onset”.

For `CC(C)Cc1ccc(C(C)C(=O)O)cc1` (centres unmarked) [ibuprofen], the “incidence of Alzheimer's disease” value (elderly patients; observational studies, individuals taking NSAID's) is given as “lower incidence of Alzheimer's disease”.

For `COc1cc(/C=C/C(=O)CC(=O)/C=C/c2ccc(O)c(OC)c2)ccc1O` [Curcumin], the inflammation [3] is given as “can reduce inflammation”.
